From US20240067632A1, “WEE1 Degrading Compounds and Uses Thereof” (Bristol-Myers Squibb Company, priority 2022, published 2024) come the findings set out here.

Like-named read-outs stand apart in the source and are kept apart here.

The subject of one experiment is MKN45 cells. The experiment in a line: MKN45 cell proliferation assay (Cell-Titer-Glo, 120 h). The format is cell-based. Conditions: for EC50: Homo sapiens, MKN-45, 120 h, Cell-Titer-Glo, read-out: MKN45 Cell Prolif. 120 hr (EC50); for MKN45 Cell Prolif. 120 hr (Ymin-Obs): minimal percent of DMSO control observed in the concentrations tested. The procedure: MKN45 cells were obtained from Celgene internal cell banks and cultured in RPMI complete media (RPMI-1640, 1× Penicillin/Streptomycin, 1× glutamine, 1× Sodium Pyruvate, Non-essential Amino Acids, 10% Fetal Bovine serum, all component from Thermo-Fisher). Compounds were dispensed into 384-well plates using an HP DE300 compound printer in triplicate with 8 compounds on each plate. For each compound, a 10-point dose response was printed at half-log dilutions starting at either 1 uM or 10 uM. The DMSO concentration was kept constant for a final assay concentration of 0.1% per well assuming 50 ul final media volume. Compound plates were sealed and frozen at −20 C until use.
For each assay batch, compound plates were thawed and allowed to reach room temperature, and cells were seeded at 400 cells per well in 50 ul complete RPMI media. After 120 hours of incubation at 37 C and 5% CO2, cells were lysed by addition of 25 μL of Cell-Titer-Glo Reagent (Promega Corporation, Madison, WI), as per manufacturer's instructions, protected from light, shaken for 45 minutes, and total luminescence read by a Perkin Elmer Envision plate reader. Total luminescence signal is linearly correlated with cell number remaining in the well.
Luminescence data was processed per plate by subtracting reagent-only “blank” well luminescence from all measured values and calculating a percent of DMSO control value for each treatment well. Then, to determine the half-maximal effective concentration (EC50) values for cell growth inhibition, a four parameter logistic model was fit to the data for each DMSO-normalized compound: Sigmoidal Dose-Response Model: (FIT=(A+((B−A)/1+((C/x)^D)))) where C is the inflection point (EC50), D is the Hill slope, and A and B are the low and high limits of the fit respectively. The lower limit of the fit (value A) is referred to as Ymin-calculated. The minimal percent of DMSO control that is observed in the concentrations tested for each compound is labeled as “Ymin-obs”, and was recorded and reported in the tables. Sigmoidal fit curves were processed and evaluated using Activity Base (IDBS, Alameda, CA).

The next experiment concerns the target T1, WEE1 (Homo sapiens, UniProt P30291+Q96SW2).
T1 construct: C-terminal ePL-tagged (DiscoverX, Fremont, CA) full-length WEE1 expression construct; expressed in transfected cells; host or cells: LentiX-HEK293T (Invitrogen), lentiviral transduction; co-expressing GSPT1-GN (G576N, lacking the first 158 amino acids)
In words: WEE1-ePL degradation assay (LentiX-WEE1-ePL-GSPT1-ND cells, InCELL Hunter luminescence, 4 h). Type of experiment: cell-based. Conditions: 293T-LentiX WEE1-ePL cells; for DC50: read-out: 293T-LentiX WEE1-ePL Degradation 4 hr (EC50). Put shortly:
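Luminescent readout (InCELL Hunter, 30 min RT) of WEE1-ePL levels in transduced HEK293T cells after 4 h compound exposure at 37 °C. Dosing: 10 points, 3-fold steps, top 1 uM or 10 uM. EC50 from four-parameter logistic fit; Ymax set by DMSO.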

The mark [1] stands for this setting: lower limit of the fit (Ymin=0 luciferase inhibitor, Ymax DMSO control).
Setting [2] is: lower limit of the fit (0 = luciferase inhibitor, Ymax = DMSO control).

As to `O=C1CC[C@@H](N2Cc3cc(O[C@H]4CCN(Cc5cc(F)c6nc(C7CCOCC7)ccc6c5)C4)ccc3C2=O)C(=O)N1` [(3R)-3-(5-{[(3S)-1-{[8-fluoro-2-(oxan-4-yl)quinolin-6-yl]methyl}pyrrolidin-3-yl]oxy}-1-oxo-2,3-dihydro-1H-isoindol-2-yl)piperidine-2,6-dione], in the experiment with MKN45 cells, the EC50 worked out at 2.19 nM and the “MKN45 Cell Prolif. 120 hr (Ymin-Obs)” value is 9.2. In addition, the “293T-LentiX WEE1-ePL Degradation 4 hr (Ymin)” value at WEE1 (setting [1]) came out at 32.17. Also, the DC50 at WEE1 is 9.49 nM.

Regarding `O=C1CCC(N2Cc3cc(O[C@H]4CCN(Cc5ccc6nc([C@H]7CCOC7)ccc6c5)C4)ccc3C2=O)C(=O)N1` (stereo partly drawn) [3-(1-oxo-5-{[(3S)-1-({2-[(3R)-oxolan-3-yl]quinolin-6-yl}methyl)pyrrolidin-3-yl]oxy}-2,3-dihydro-1H-isoindol-2-yl)piperidine-2,6-dione], the EC50 in the experiment on MKN45 cells (growth inhibition) was 6.07 nM. The “MKN45 Cell Prolif. 120 hr (Ymin-Obs)” value with MKN45 cells is reported as 8.454. Also, the “293T-LentiX WEE1-ePL Degradation 4 hr (Ymin)” value on WEE1 (setting [2]) is listed as 29. Besides, on WEE1, the DC50 was 2.71 nM.

`O=C1CCC(N2Cc3cc(O[C@H]4CCN(Cc5ccc6nc([C@@H]7CCC[C@@H](O)C7)ccc6c5)C4)ccc3C2=O)C(=O)N1` (stereo partly drawn) [3-(5-{[(3S)-1-({2-[(1R,3R)-3-hydroxycyclohexyl]quinolin-6-yl}methyl)pyrrolidin-3-yl]oxy}-1-oxo-2,3-dihydro-1H-isoindol-2-yl)piperidine-2,6-dione]: the EC50 in the experiment with MKN45 cells (growth inhibition) was 1.18 nM. Also, the “MKN45 Cell Prolif. 120 hr (Ymin-Obs)” value in the experiment with MKN45 cells was 8.405. Besides, at WEE1 (setting [2]), the “293T-LentiX WEE1-ePL Degradation 4 hr (Ymin)” value came out at 31. For the same compound, on WEE1, the DC50 stood at 3.18 nM.

Take `CC#Cc1ccc2cc(CN3CC[C@H](Oc4ccc5c(c4)CN(C4CCC(=O)NC4=O)C5=O)C3)ccc2n1` (stereo partly drawn) [3-(1-oxo-5-{[(3S)-1-{[2-(prop-1-yn-1-yl)quinolin-6-yl]methyl}pyrrolidin-3-yl]oxy}-2,3-dihydro-1H-isoindol-2-yl)piperidine-2,6-dione]: the EC50 in the experiment on MKN45 cells (growth inhibition) was 2.02 nM. Also, in the experiment with MKN45 cells, the “MKN45 Cell Prolif. 120 hr (Ymin-Obs)” value is given as 8.03. In addition, at WEE1 (setting [2]), the “293T-LentiX WEE1-ePL Degradation 4 hr (Ymin)” value was 29.33. The DC50 on WEE1 turned out to be 3.18 nM.

`O=C1CCC(N2Cc3cc(O[C@H]4CCN(Cc5ccc6nc(C78CCOCC7C8)ccc6c5)C4)ccc3C2=O)C(=O)N1` (stereo partly drawn) [3-(5-{[(3S)-1-[(2-{3-oxabicyclo[4.1.0]heptan-6-yl}quinolin-6-yl)methyl]pyrrolidin-3-yl]oxy}-1-oxo-2,3-dihydro-1H-isoindol-2-yl)piperidine-2,6-dione]: the EC50 in the experiment with MKN45 cells (growth inhibition) came to 2.16 nM. For the same compound, the “MKN45 Cell Prolif. 120 hr (Ymin-Obs)” value in the experiment with MKN45 cells is listed as 9.735. In addition, on WEE1 (setting [2]), the “293T-LentiX WEE1-ePL Degradation 4 hr (Ymin)” value is given as 33.33. The DC50 at WEE1 was 3.1 nM.

Turning to `CC1(C)C[C@H](c2ncc3cc(CN4CC[C@H](Oc5ccc6c(c5)CN([C@H]5CCC(=O)NC5=O)C6=O)C4)ccc3n2)CCO1` [(3S)-3-(5-{[(3S)-1-({2-[(4R)-2,2-dimethyloxan-4-yl]quinazolin-6-yl}methyl)pyrrolidin-3-yl]oxy}-1-oxo-2,3-dihydro-1H-isoindol-2-yl)piperidine-2,6-dione], in the experiment on MKN45 cells, the EC50 is 15.5 nM and the “MKN45 Cell Prolif. 120 hr (Ymin-Obs)” value came out at 11.79. The “293T-LentiX WEE1-ePL Degradation 4 hr (Ymin)” value at WEE1 (setting [1]) amounted to 29.31. Also, the DC50 at WEE1 is 32.3 nM.

`COC[C@H]1CC[C@@H](c2ccc3cc(CN4CC[C@H](Oc5ccc6c(c5)CN(C5CCC(=O)NC5=O)C6=O)C4)ccc3n2)CC1` (stereo partly drawn) [3-(1-oxo-5-{[(3S)-1-({2-[(1s,4s)-4-(methoxymethyl)cyclohexyl]quinolin-6-yl}methyl)pyrrolidin-3-yl]oxy}-2,3-dihydro-1H-isoindol-2-yl)piperidine-2,6-dione]: the EC50 in the experiment with MKN45 cells (growth inhibition) stood at 2.66 nM. For the same compound, the “MKN45 Cell Prolif. 120 hr (Ymin-Obs)” value with MKN45 cells was 12.53. Besides, the “293T-LentiX WEE1-ePL Degradation 4 hr (Ymin)” value on WEE1 (setting [2]) is reported as 28.9. For the same compound, the DC50 at WEE1 came to 1.22 nM.

Regarding `O=C1CCC(N2Cc3cc(O[C@H]4CCN(Cc5ccc6nc(N7[C@@H]8CC[C@H]7COC8)ccc6c5)C4)ccc3C2=O)C(=O)N1` (stereo partly drawn) [3-(5-{[(3S)-1-({2-[(1R,5S)-3-oxa-8-azabicyclo[3.2.1]octan-8-yl]quinolin-6-yl}methyl)pyrrolidin-3-yl]oxy}-1-oxo-2,3-dihydro-1H-isoindol-2-yl)piperidine-2,6-dione], the EC50 in the experiment with MKN45 cells (growth inhibition) was 9.72 nM. Moreover, the “MKN45 Cell Prolif. 120 hr (Ymin-Obs)” value in the experiment with MKN45 cells is on record as 11.965. For the same compound, at WEE1 (setting [2]), the “293T-LentiX WEE1-ePL Degradation 4 hr (Ymin)” value came out at 28. In addition, the DC50 on WEE1 is 4.47 nM.

Consider `O=C1CCC(N2Cc3cc(O[C@H]4CCN(Cc5cc6ccc(N7CCOCC7)cc6cn5)C4)ccc3C2=O)C(=O)N1` (stereo partly drawn) [3-(5-{[(3S)-1-{[7-(morpholin-4-yl)isoquinolin-3-yl]methyl}pyrrolidin-3-yl]oxy}-1-oxo-2,3-dihydro-1H-isoindol-2-yl)piperidine-2,6-dione], for which the EC50 in the experiment with MKN45 cells (growth inhibition) came out at 3.17 nM. The “MKN45 Cell Prolif. 120 hr (Ymin-Obs)” value in the experiment on MKN45 cells is given as 6.72. At WEE1 (setting [2]), the “293T-LentiX WEE1-ePL Degradation 4 hr (Ymin)” value was determined as 36. In addition, the DC50 on WEE1 was 3.82 nM.

On to `O=C1CCC(N2Cc3cc(O[C@H]4CCN(Cc5ccc6nc(C7CCOCC7)ccc6c5F)C4)ccc3C2=O)C(=O)N1` (stereo partly drawn) [3-(5-{[(3S)-1-{[5-fluoro-2-(oxan-4-yl)quinolin-6-yl]methyl}pyrrolidin-3-yl]oxy}-1-oxo-2,3-dihydro-1H-isoindol-2-yl)piperidine-2,6-dione], for which, in the experiment with MKN45 cells (growth inhibition), the EC50 was 1.29 nM. Besides, in the experiment on MKN45 cells, the “MKN45 Cell Prolif. 120 hr (Ymin-Obs)” value is 10.02. Also, the “293T-LentiX WEE1-ePL Degradation 4 hr (Ymin)” value at WEE1 (setting [2]) is given as 32. The DC50 on WEE1 came out at 1.33 nM.

`CN1CCc2ncc(CN3CC[C@H](Oc4ccc5c(c4)CN(C4CCC(=O)NC4=O)C5=O)C3)cc2C1` (stereo partly drawn) [3-(5-{[(3S)-1-[(6-methyl-5,6,7,8-tetrahydro-1,6-naphthyridin-3-yl)methyl]pyrrolidin-3-yl]oxy}-1-oxo-2,3-dihydro-1H-isoindol-2-yl)piperidine-2,6-dione]: in the experiment with MKN45 cells (growth inhibition), the EC50 is 5050 nM. Also, the “MKN45 Cell Prolif. 120 hr (Ymin-Obs)” value in the experiment with MKN45 cells is 33.405. At WEE1 (setting [2]), the “293T-LentiX WEE1-ePL Degradation 4 hr (Ymin)” value was found to be 34. For the same compound, on WEE1, the DC50 amounted to 216 nM.

With `N#Cc1nc2ccc(CN3CC[C@H](Oc4ccc5c(c4)CN(C4CCC(=O)NC4=O)C5=O)C3)cc2cc1F` (stereo partly drawn) [6-{[(3S)-3-{[2-(2,6-dioxopiperidin-3-yl)-1-oxo-2,3-dihydro-1H-isoindol-5-yl]oxy}pyrrolidin-1-yl]methyl}-3-fluoroquinoline-2-carbonitrile], the EC50 in the experiment with MKN45 cells (growth inhibition) was determined as 32.8 nM. Also, the “MKN45 Cell Prolif. 120 hr (Ymin-Obs)” value in the experiment with MKN45 cells was 12.265. Also, the “293T-LentiX WEE1-ePL Degradation 4 hr (Ymin)” value at WEE1 (setting [2]) was determined as 35. Also, the DC50 at WEE1 is 7.79 nM.

On to `CO[C@H]1CCCC[C@@H]1c1ccc2cc(CN3CC[C@H](Oc4ccc5c(c4)CN(C4CCC(=O)NC4=O)C5=O)C3)ccc2n1` (stereo partly drawn) [3-(5-{[(3S)-1-({2-[(1R,2S)-2-methoxycyclohexyl]quinolin-6-yl}methyl)pyrrolidin-3-yl]oxy}-1-oxo-2,3-dihydro-1H-isoindol-2-yl)piperidine-2,6-dione], for which, in the experiment on MKN45 cells, the 50% effective concentration (EC50) is 7.63 nM and the “MKN45 Cell Prolif. 120 hr (Ymin-Obs)” value was found to be 23.82. For the same compound, on WEE1 (setting [1]), the “293T-LentiX WEE1-ePL Degradation 4 hr (Ymin)” value was 25.39. The DC50 on WEE1 is 4.52 nM.

With `O=C1CCC(N2Cc3cc(O[C@H]4CCN(Cc5ccc6ccc(=O)oc6c5)C4)ccc3C2=O)C(=O)N1` (stereo partly drawn) [3-(1-oxo-5-{[(3S)-1-[(2-oxo-2H-chromen-7-yl)methyl]pyrrolidin-3-yl]oxy}-2,3-dihydro-1H-isoindol-2-yl)piperidine-2,6-dione], the EC50 with MKN45 cells (growth inhibition) was more than 10000 nM. Besides, in the experiment with MKN45 cells, the “MKN45 Cell Prolif. 120 hr (Ymin-Obs)” value amounted to 85.765. Also, the “293T-LentiX WEE1-ePL Degradation 4 hr (Ymin)” value at WEE1 (setting [2]) turned out to be 55. Moreover, the DC50 on WEE1 turned out to be 28.8 nM.

For the compound `Cc1cccc2ncc(CN3CC[C@H](Oc4ccc5c(c4)CN(C4CCC(=O)NC4=O)C5=O)C3)cc12` (stereo partly drawn) [3-(5-{[(3S)-1-[(5-methylquinolin-3-yl)methyl]pyrrolidin-3-yl]oxy}-1-oxo-2,3-dihydro-1H-isoindol-2-yl)piperidine-2,6-dione], in the experiment with MKN45 cells (growth inhibition), the EC50 came out at 37 nM. Also, the “MKN45 Cell Prolif. 120 hr (Ymin-Obs)” value with MKN45 cells was 12.09. Further, the “293T-LentiX WEE1-ePL Degradation 4 hr (Ymin)” value on WEE1 (setting [2]) worked out at 26.805. In addition, the DC50 at WEE1 was 5.31 nM.
